The source of these data is US9765075B2, “Substituted bridged urea analogs as sirtuin modulators” (GLAXOSMITHKLINE LLC, priority 2013, dated 2017).

The target of the test is T1, SIRT1 (Homo sapiens, UniProt Q96EB6).
T1 sequence (Q96EB6 1-747): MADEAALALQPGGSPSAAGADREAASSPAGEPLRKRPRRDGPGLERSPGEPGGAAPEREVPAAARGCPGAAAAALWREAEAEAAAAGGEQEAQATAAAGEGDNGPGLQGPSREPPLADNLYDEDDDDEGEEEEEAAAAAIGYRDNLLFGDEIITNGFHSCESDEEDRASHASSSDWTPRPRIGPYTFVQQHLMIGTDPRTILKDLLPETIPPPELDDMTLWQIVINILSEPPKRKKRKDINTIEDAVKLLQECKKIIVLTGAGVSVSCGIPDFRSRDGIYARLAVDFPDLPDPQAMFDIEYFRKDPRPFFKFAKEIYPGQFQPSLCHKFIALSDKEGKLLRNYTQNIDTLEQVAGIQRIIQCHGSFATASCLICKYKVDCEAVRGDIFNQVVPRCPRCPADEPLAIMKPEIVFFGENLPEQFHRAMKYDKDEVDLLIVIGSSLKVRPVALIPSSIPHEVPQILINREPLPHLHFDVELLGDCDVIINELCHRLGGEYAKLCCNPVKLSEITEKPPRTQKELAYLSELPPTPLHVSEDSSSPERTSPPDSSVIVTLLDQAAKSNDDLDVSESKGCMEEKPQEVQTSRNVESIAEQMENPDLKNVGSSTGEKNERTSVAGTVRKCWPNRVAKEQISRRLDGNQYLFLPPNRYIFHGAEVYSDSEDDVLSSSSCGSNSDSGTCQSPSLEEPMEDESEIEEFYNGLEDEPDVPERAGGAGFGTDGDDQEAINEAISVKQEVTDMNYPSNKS
The test is described as follows: Trp mass spectrometry assay (SIRT1 activation). The class given is biochemical. The conditions noted are these: for Emax: percent maximum fold activation of SIRT1, read-out: Tryp % Fold Act. The source says: Mass spectrometry based assays were used to identify modulators of SIRT1 activity. […] The peptide was labeled with the fluorophore 5TMR (excitation 540 nm/emission 580 nm) at the C-terminus. The sequence of the peptide substrate was based on p53 with several modifications. In addition, the methionine residue naturally present in the sequence was replaced with the norleucine because the methionine may be susceptible to oxidation during synthesis and purification. The Trp based assay utilized a peptide having an amino acid residues as follows: Ac-R-H-K-K(Ac)-W-NH2 (SEQ ID NO: 2).
The Trp mass spectrometry assay was conducted as follows. 0.5 μM peptide substrate and 120 μM βNAD^+ were incubated with 10 nM SIRT1 for 25 minutes at 25° C. in a reaction buffer (50 mM HEPES pH 7.5, […] NaCl, 1 mM DTT, 0.05% BSA). The SIRT1 protein was obtained by cloning the SirT1 gene into a T7-promoter containing vector, which was then expressed in BL21(DE3) bacterial cells and purified as described in further detail below. Test compound was added at varying concentrations to this reaction mixture and the resulting reactions were monitored. After the 25 minute incubation with SIRT1, 10 μL of 10% formic acid was added to stop the reaction. The resulting reactions were sealed and frozen for later mass spec analysis. The relative SIRT1 activity was then determined by measuring the amount of 0-acetyl-ADP-ribose (OAADPR) formed (or, alternatively, the amount of deacetylated Trp peptide generated) by the NAD-dependent sirtuin deacetylation reaction in the presence of varying concentrations of the test compound versus control reactions lacking the test compound. The degree to which the test agent activated deacetylation by SIRT1 was expressed as EC1.5 (i.e., the concentration of compound required to increase SIRT1 activity by 50% over the control lacking test compound), and Percent Maximum Activation (i.e., the maximum activity relative to control (100%) obtained for the test compound).
A control for activation of sirtuin activity was conducted using 10 nM of sirtuin protein, with 1 μL of DMSO in place of compound, to determine the amount of deacetylation of the substrate at a given time point within the linear range of the assay. This time point was the same as that used for test compounds and, within the linear range, the endpoint represents a change in velocity.
For the above assay, SIRT1 protein was expressed and purified as follows. The SirT1 gene was cloned into a T7-promoter containing vector and transformed into BL21(DE3). The protein was expressed by induction with 1 mM IPTG as an N-terminal His-tag fusion protein at 18° C. overnight and harvested at 30,000×g. Cells were lysed with lysozyme in lysis buffer (50 mM Tris-HCl, 2 mM Tris[2-carboxyethyl] phosphine (TCEP), 10 μM ZnCl2, 200 mM NaCl) and further treated with sonication for 10 min for complete lysis. The protein was purified over a Ni-NTA column (Amersham) and fractions containing pure protein were pooled, concentrated and run over a sizing column (Sephadex S200 26/60 global). The peak containing soluble protein was collected and run on an Ion-exchange column (MonoQ). Gradient elution (200 mM-500 mM NaCl) yielded pure protein. This protein was concentrated and dialyzed against dialysis buffer (20 mM Iris-HCl, 2 mM TCEP) overnight. The protein was aliquoted and frozen at −80° C. until further use.

Setting [1] is: concentration of test compound that results in 150% activation of SIRT1, Trp peptide substrate.
[2] abbreviates: Trp mass spectrometry assay, EC1.5 = concentration of test compound that results in 150% activation of SIRT1.
Where [3] appears, read: Trp mass spectrometry assay, EC1.5 = concentration giving 150% activation of SIRT1.

Where two headings read alike, the source gives them in different places.

As for `N#Cc1ccccc1-c1ccc2c(n1)N(C(=O)Nc1ccncn1)[C@H]1CCCN2C1` [Example 451], the “Tryp AVG EC1.5 (μM)” value under setting [1] is recorded as “B (EC1.5 1-25 μM)”. Besides, the Emax (Trp peptide substrate) was no less than 150%.
The matching figures for `O=C(Nc1cnccn1)N1c2nc(-c3ccc(Cl)c(Cl)c3)ccc2N2CC[C@H]1C2` [Example 461]: “A (EC1.5<1 μM)” and no less than 150%.
`Cc1c(-c2ccc3c(n2)N(C(=O)Nc2cccnc2)[C@H]2CCN3C2)cnn1C` [Example 489]: the “Tryp AVG EC1.5 (μM)” value under setting [1] is listed as “B (EC1.5 1-25 μM)”. Also, under “Trp peptide substrate”, the Emax was no less than 150%.
On to `O=C(Nc1ccncn1)N1c2nc(-c3cccc(C(F)(F)F)c3)ccc2N2CCC1CC2` [Example 172], for which the “Tryp AVG EC1.5 (μM)” value under setting [2] is on record as “B (EC1.5 1-25 μM)”. For the same molecule, the Emax (Trp mass spectrometry assay) is no less than 150%.
Consider `O=C(Nc1ccncc1F)N1c2nc(N3CCCC(C(F)(F)F)C3)ccc2N2CCC[C@H]1C2` (some centres unmarked) [Example 291], for which the “Tryp AVG EC1.5 (μM)” value under setting [1] is reported as “B (EC1.5 1-25 μM)”. Where the note is “Trp peptide substrate”, the Emax was no less than 150%.
On to `C#CCCCNc1nccc(NC(=O)N2c3nc(-c4cccc(C5(C(F)(F)F)N=N5)c4)ccc3N3CC[C@H]2C3)n1` [Example 798], for which, under setting [3], the “Tryp AVG EC1.5 (μM)” value is “A (EC1.5<1 μM)”. For the same molecule, the Emax (Trp mass spectrometry assay) is no less than 150%.
Regarding `O=C(Nc1cccnn1)N1c2nc(-c3cccc(C(F)(F)F)c3)ccc2N2CC[C@H]1C2` [Example 11], under “Trp mass spectrometry assay”, the Emax is no less than 150%.
`Cc1ccncc1-c1ccc2c(n1)N(C(=O)Nc1cncc(F)c1)[C@H]1CCCN2C1` [Example 510]: the “Tryp AVG EC1.5 (μM)” value under setting [1] is “B (EC1.5 1-25 μM)”. The Emax (Trp peptide substrate) is no less than 150%.
The matching figures for `CC(C)(C)OC(=O)N1CCC(c2cccc(NC(=O)N3c4nc(-c5cccc(C(F)(F)F)c5)ccc4N4CC[C@H]3C4)c2)C1` (some centres unmarked) [Example 592]: “A (EC1.5<1 μM)” and no less than 150%.
For `N#Cc1ccccc1-c1ccc2c(n1)N(C(=O)Nc1cnccn1)[C@H]1CCCN2C1` [Example 450], the “Tryp AVG EC1.5 (μM)” value under setting [1] is recorded as “B (EC1.5 1-25 μM)”. In addition, the Emax (Trp peptide substrate) was no less than 150%.
With `COc1cc(NC(=O)N2c3nc(-c4cccc(Cl)c4)ccc3N3C[C@@H](O)[C@H]2C3)ncn1` [Example 679], the “Tryp AVG EC1.5 (μM)” value under setting [3] is recorded as “B (EC1.5 1-25 μM)”. In addition, the Emax (Trp mass spectrometry assay) was no less than 150%.
As to `COc1cc(NC(=O)N2c3nc(-c4cccc(N5CCCC5)c4)ccc3N3CC[C@H]2C3)ncn1` [Example 132], the “Tryp AVG EC1.5 (μM)” value under setting [2] is reported as “B (EC1.5 1-25 μM)”. The Emax (Trp mass spectrometry assay) is no less than 150%.
As to `O=C(Nc1cccnc1)N1c2nc(-c3cccc(Cl)c3)ccc2N2CCC1CC2` [Example 496], the “Tryp AVG EC1.5 (μM)” value under setting [1] is on record as “A (EC1.5<1 μM)”. Also, the Emax (Trp peptide substrate) is no less than 150%.
Take `CC(C)(C)OC(=O)NCCCc1ccc(NC(=O)N2c3nc(-c4cccc(C(F)(F)F)c4)ccc3N3CCC[C@H]2C3)cc1-c1cnco1` [Example 752]: the “Tryp AVG EC1.5 (μM)” value under setting [3] is “A (EC1.5<1 μM)”. The Emax (Trp mass spectrometry assay) was no less than 150%.
As for `Cc1cc(C)nc(NC(=O)N2c3nc(N4CCCC(C(F)(F)F)C4)ccc3N3CCC[C@H]2C3)c1` (some centres unmarked) [Example 287], the “Tryp AVG EC1.5 (μM)” value under setting [1] is “B (EC1.5 1-25 μM)”. Moreover, where the note is “Trp peptide substrate”, the Emax is no less than 150%.
`O=C(NCCCc1ccncc1)N1c2nc(-c3cccc(C(F)(F)F)c3)ccc2N2CC[C@H]1C2` [Example 633]: the “Tryp AVG EC1.5 (μM)” value under setting [3] was “B (EC1.5 1-25 μM)”. Besides, the Emax (Trp mass spectrometry assay) is no less than 150%.
In the case of `COc1ccc(-c2ccc3c(n2)N(C(=O)Nc2ccccn2)[C@H]2CCN3C2)cn1` [Example 342], under setting [1], the “Tryp AVG EC1.5 (μM)” value is on record as “B (EC1.5 1-25 μM)”. Moreover, the Emax (Trp peptide substrate) was no less than 150%.
Consider `O=C(Nc1cccc(-c2cnco2)c1)N1c2nc(-c3cccc(C(F)(F)F)c3)ccc2N2C[C@@H](O)[C@H]1C2` [Example 665], for which the “Tryp AVG EC1.5 (μM)” value under setting [3] is recorded as “A (EC1.5<1 μM)”. Moreover, the Emax (Trp mass spectrometry assay) was no less than 150%.
As to `O=C(Nc1cnccn1)N1c2nc(-c3cncc(Cl)c3)ccc2N2CCC[C@H]1C2` [Example 417], the “Tryp AVG EC1.5 (μM)” value under setting [1] was “A (EC1.5<1 μM)”. Also, the Emax (Trp peptide substrate) was no less than 150%.
The matching figures for `COc1cncc(NC(=O)N2c3nc(-c4cccc(N5CCCC5)c4)ccc3N3CC[C@H]2C3)n1` [Example 366]: “A (EC1.5<1 μM)” and no less than 150%.
Consider `N#Cc1cccc(-c2ccc3c(n2)N(C(=O)Nc2cncc(F)c2)[C@@H]2CCCN3C2)c1` [Example 228], for which the “Tryp AVG EC1.5 (μM)” value under setting [1] is “B (EC1.5 1-25 μM)”. Also, the Emax (Trp peptide substrate) is no less than 150%.
For the molecule `Cc1cc(C)nc(NC(=O)N2c3nc(-c4cccc(C(F)(F)F)c4)ccc3N3CCC[C@H]2C3)c1` [Example 30], the Emax (Trp mass spectrometry assay) is no less than 150%.
Take `O=C(Nc1ccncn1)N1c2nc(-c3cncc(C(F)(F)F)c3)ccc2N2CCC[C@H]1C2` [Example 393]: the “Tryp AVG EC1.5 (μM)” value under setting [1] is listed as “A (EC1.5<1 μM)”. In addition, the Emax (Trp peptide substrate) is no less than 150%.
Turning to `Cn1ccc(NC(=O)N2c3nc(-c4cccc(N5CCCC5)c4)ccc3N3CC[C@H]2C3)n1` [Example 208], the “Tryp AVG EC1.5 (μM)” value under setting [2] is given as “B (EC1.5 1-25 μM)”. Also, under “Trp mass spectrometry assay”, the Emax is no less than 150%.
As to `O=C(Nc1ccc(-n2cncn2)cc1)N1c2nc(-c3cccc(C(F)(F)F)c3)ccc2N2CC[C@H]1C2` [Example 580], the “Tryp AVG EC1.5 (μM)” value under setting [1] is “A (EC1.5<1 μM)”. Further, the Emax (Trp peptide substrate) is no less than 150%.
The matching figures for `O=C(Nc1cnccn1)N1c2nc(-c3cc(Cl)cc(Cl)c3)ccc2N2CC[C@H]1C2` [Example 364]: “B (EC1.5 1-25 μM)” and no less than 150%.
The matching figures for `Cc1cnc(NC(=O)N2c3nc(N4CCCC(C(F)(F)F)C4)ccc3N3CCC[C@@H]2C3)s1` (some centres unmarked) [Example 311]: “C (EC1.5>25 μM)” and less than 150%.
In the case of `CC1CN2CC1N(C(=O)Nc1ccncc1)c1nc(-c3cccc(C(F)(F)F)c3)ccc12` (centres unmarked) [Example 114], the “Tryp AVG EC1.5 (μM)” value under setting [2] is “B (EC1.5 1-25 μM)”. Further, the Emax (Trp mass spectrometry assay) was no less than 150%.
The matching figures for `O=C1OCc2ccc(NC(=O)N3c4nc(-c5cccc(C(F)(F)F)c5)ccc4N4CC[C@H]3C4)cc21` [Example 93]: “A (EC1.5<1 μM)” and no less than 150%.
For the molecule `Cc1ccc(-c2cccc(NC(=O)N3c4nc(-c5cccc(C(F)(F)F)c5)ccc4N4CC[C@H]3C4)c2)cc1C` [Example 619], the “Tryp AVG EC1.5 (μM)” value under setting [1] is listed as “C (EC1.5>25 μM)”. Besides, the Emax (Trp peptide substrate) is less than 150%.
As to `NCc1cnnn1-c1cccc(NC(=O)N2c3nc(-c4cccc(C(F)(F)F)c4)ccc3N3CC[C@H]2C3)c1` [Example 640], the “Tryp AVG EC1.5 (μM)” value under setting [3] is listed as “A (EC1.5<1 μM)”. Also, the Emax (Trp mass spectrometry assay) is no less than 150%.
For the molecule `O=C(Nc1cnccn1)N1c2nc(-c3cccc(N4CCCC4)c3)ccc2N2CC[C@H]1C2` [Example 206], the “Tryp AVG EC1.5 (μM)” value under setting [2] is listed as “B (EC1.5 1-25 μM)”. Further, under “Trp mass spectrometry assay”, the Emax was no less than 150%.
